# Measured values taken from patent US7223733B2, “Modulation of TRIP-Br function and method of treating proliferative disorders” (National University of Singapore, priority 2004, dated 2007).
# Where no end group is shown, it is not given here.
# What was measured:
# Format in all cases: cell-based, human
# U2OS cells [1] = assay: Cell number (Coulter counter) and viability (trypan blue) of U2OS cells; details: for total cell number over time: 50 μM, 0, 48 and 72 h, Coulter counter; for viable cells, trypan blue manual count: 50 μM, 72 h, compared to vehicle or *SCR
# Description: Determination of cell number and viability. U2OS cells grown in 6-well dishes for 24 h were exposed to 2 ml of growth medium containing either vehicle (0.5% DMSO) or 50 μM decoy peptides for 48 or 72 h. Following treatment, the cells were washed twice with 1×PBS, harvested by trypsinization and re-suspended in 1 ml 1×PBS. 10 μl of cell suspension was taken from each sample and enumerated either electronically or manually. For electronic total cell counts, 10 μl of cell suspension was diluted in 20 ml of isoton® II buffer (Coulter®) and cell number was estimated using an electronic Coulter® counter. For manual counting of viable cells, 10 μl of cell suspension from each sample was mixed with equal volume of trypan blue stain (Sigma, 0.4% w/v in 1×PBS). The number of viable (unstained) cells was enumerated manually using a hemocytometer. FIG. 4: Time-dependent and dose-dependent anti-proliferative effects of the decoy peptides. (A) Time-dependent anti-proliferative effects of the decoy peptides. U2OS cells, exposed to either vehicle (0.5% DMSO) or 50 μM decoy peptides for either 24 or 48 h, were assayed for BrdU incorporation with a colorimetric ELISA assay. Values represent the average +/− standard deviation of two independent experiments; (B) Dose-dependent anti-proliferative effects of the decoy peptides. U2OS cells, exposed to 5, 10, 20 or 50 μM of *SCR (solid line and square), *Br1 (dashed line and triangle) or *Br2 (dashed line and circle) for 48 h, were assayed for BrdU incorporation with a colorimetric ELISA assay. Values represent the average +/− standard deviation of at least two independent experiments; (C) Cell proliferation analysis. Left panel: At 0, 48 and 72 h post decoy peptide treatment, total cell number was determined electronically using a Coulter® counter. Right panel: At 72 h post-treatment, cells were harvested and stained with trypan blue for viable cell count analysis.
# U2OS cells [2] = assay: BrdU incorporation colorimetric ELISA in U2OS cells; details: for DNA synthesis activity (BrdU incorporation): U2OS, 50 μM, between 24 h and 48 h post-treatment; for ability to incorporate BrdU with increasing concentrations: U2OS, 5, 10, 20 or 50 μM, 48 h
# Description: BrdU assay. U2OS cells grown in 96-well plates were exposed to either vehicle or decoy peptides. Bromodeoxyuridine (BrdU) incorporation was monitored with a colorimetric ELISA assay using a cell proliferation kit according to manufacturer's recommendations (Boehringer Mannheim).
# FIG. 4: Time-dependent and dose-dependent anti-proliferative effects of the decoy peptides. (A) Time-dependent anti-proliferative effects of the decoy peptides. U2OS cells, exposed to either vehicle (0.5% DMSO) or 50 μM decoy peptides for either 24 or 48 h, were assayed for BrdU incorporation with a colorimetric ELISA assay. Values represent the average +/− standard deviation of two independent experiments; (B) Dose-dependent anti-proliferative effects of the decoy peptides. U2OS cells, exposed to 5, 10, 20 or 50 μM of *SCR (solid line and square), *Br1 (dashed line and triangle) or *Br2 (dashed line and circle) for 48 h, were assayed for BrdU incorporation with a colorimetric ELISA assay. Values represent the average +/− standard deviation of at least two independent experiments; (C) Cell proliferation analysis. Left panel: At 0, 48 and 72 h post decoy peptide treatment, total cell number was determined electronically using a Coulter® counter. Right panel: At 72 h post-treatment, cells were harvested and stained with trypan blue for viable cell count analysis.
# E2F-regulated genes = assay: Semi-quantitative RT-PCR of E2F-regulated genes in U2OS cells; details: 50 μM, 16 h
# Description: Semi-quantitative RT-PCR. Total RNA was isolated from U2OS cells or U2OS-ER-E2F-1 cells (grown with or without 1.0 μM OHT and/or 10 μg/ml cycloheximide) using the TRIZOL® Reagent (Life Technologies). Total RNA (4 μg) was reverse transcribed using oligo-dT and M-MLV reverse transcriptase in a total reaction volume of 20 μl. Polymerase Chain Reactions (PCR) were carried out on 3 μl cDNA samples in the presence of […] deoxyribonucleotide triphosphates (dNTPs) and 40 μM of specific primer pairs in a total reaction volume of 50 μ. The cycling profile for PCR was as follow: 30 cycles of denaturation (94° C., 30 sec), annealing (51° C., 30 sec) and extension (72° C., 2 min), with a 2-minute initial denaturation step at 94° C. and a 10-minute terminal polishing step at 72° C. Sequences of gene-specific primers are available upon request. PCR amplification products were analyzed by agarose gel electrophoresis.
# (§1) FIG. 3: Analysis of E2F-responsive transcription in U2OS cells in response to decoy peptide treatment. (A) β-galactosidase/Luciferase assay of U2OS cells co-transfected with 0.1 μg of pCMV/β-galactosidase and 7.5 μg of the indicated luciferase reporter plasmids. Promoter activity of vehicle-treated samples was normalized to 100% and the activities of the peptide-treated samples were expressed relative to the vehicle-treated control. Values represent the average +/− standard deviation of at least two independent experiments; (B) Semi-quantitative RT-PCR analysis on total RNA for dhfr, cyclin-E, cyclin A2, PCNA, DNA Pola and cdc2 expression in U2OS cells exposed for 16 h to either vehicle (0.5% DMSO) or 50 μM of the indicated decoy peptides. H-actin was included as an internal control.
# [3] = system: minimal luciferase reporter (pGL3-TATA-Luc); assay: TATA-containing minimal luciferase reporter assay in U2OS cells; details: 50 μM, 5 h
# Description: DNA Transfection and Sequential β-Galactosidase/Luciferase Assay. For luciferase reporter assays, U2OS cells were cultured in 6-well dishes and transfected 24 h later with various reporter plasmids by the calcium precipitation method as previously described (Martin, K., et al. Nature 375, 691-694 (1995)). 24 h following precipitate removal, cells were exposed for 5 h to either vehicle (0.5% DMSO) or 50 μM of decoy peptide, prior to harvesting. Cells were scraped in 200 μl of lysis buffer and a single 10 μl aliquot of lysate was immediately used for sequential measurement of β-galactosidase and luciferase activity using the Dual Light System (Tropix). For protein overexpression experiments, U2OS cells were cultured in 6-well plates at a density of 1×10^5 cells/well and transfected 24 h later with Superfect reagent (QIAGEN).
# as §1
# The PHD-bromodomain-interacting function of TRIP-Br proteins co-regulate E2F-dependent transcriptional activity in vivo. […] U2OS cells were chosen for this assay because they express functional E2F-1, DP-1, Rb and detectable levels of endogenous TRIP-Br1 (as assessed by Western blot analysis using a rabbit polyclonal anti-TRIP-Br1 antibody (Hsu, S. I. H., et al. EMBO J 20, 2273-2285 (2001)); data not shown). […]
Sequence,total cell number over time (U2OS cells [1]),DNA synthesis activity (BrdU incorporation) (U2OS cells [2]),expression profile of the genes under investigation relative to vehicle (E2F-regulated genes; six E2F-regulated genes),transcriptional activity of the minimal reporter [3],"viable cells, trypan blue manual count (U2OS cells [1])",ability to incorporate BrdU with increasing concentrations (U2OS cells [2]),cdc2 mRNA transcript level (E2F-regulated genes),transcriptional activity of PCNA gene (E2F-regulated genes),transcriptional activity of cyclin A2 gene (E2F-regulated genes),transcriptional activity of cyclin-E gene (E2F-regulated genes),DNA Polα mRNA expression level (E2F-regulated genes),dhfr mRNA expression level (E2F-regulated genes)
"ERQIKIWFQNRRMKWKKGLDEDGLLLFCEGDTIAD (Peptide containing penetratin sequence from Drosophila and random peptide sequence) [*SCR, reference compound]",nearly identical increments in cell number over time,basal DNA synthesis rate similar to that of the vehicle-treated control cells,negligible effects,slight activation,,,,,,,,
ERQIKIWFQNRRMKWKKATGCLLDDGLEGLFEDID (ERQIKIWFQNRRMKWKKATGCLLDDGLEGLFEDID-NH2) [*Br1],nearly complete cessation of cell proliferation,substantially reduced DNA synthesis activity,,slight activation,significantly fewer viable cells,progressively reduced ability to incorporate BrdU,significant down regulation,unaffected,unaffected,unaffected,,
ERQIKIWFQNRRMKWKKTGFLTDLTLDDILFADID (ERQIKIWFQNRRMKWKKTGFLTDLTLDDILFADID-NH2) [*Br2],nearly complete cessation of cell proliferation,substantially reduced DNA synthesis activity,,did not alter the transcriptional activity of the minimal reporter significantly,significantly fewer viable cells,progressively reduced ability to incorporate BrdU,significant down regulation,unaffected,unaffected,unaffected,down-regulated,down-regulated
